Experiment [1] is described as follows: Inhibition of murine Phosphatidylinositol 3-kinase. Set-up: species or system Mus musculus.
The subject of a further experiment is HT-29. Kind of experiment: Inhibition of colony formation of […] human colon carcinoma cell lines. The class given is functional, cell-based.
Experiment [2] can be described thus: Inhibition of murine Phosphatidylinositol 3-kinase (No effect). Further details: species or system Mus musculus; call rule not given here.

Experimental findings from ChEMBL document CHEMBL1128572, “Synthesis and biology of 1D-3-deoxyphosphatidylinositol: a putative antimetabolite of phosphatidylinositol-3-phosphate and an inhibitor of cancer cell colony formation” (J Med Chem, 1995) are described below.

For the molecule `CCCCCCCCCCCCCCCC(=O)OCC(COP(=O)(O)OC1C(O)C(O)C(O)C(F)C1O)OC(=O)CCCCCCCCCCCCCCC` (centres undefined), the IC50 (as a rule, the point on the concentration scale where inhibition reaches its midpoint) in experiment [1] stood at 30 µM; in the experiment on HT-29 it was 37 µM.
With `CCCCCCCCCCCCCCCC(=O)OCC(COP(=O)(O)O[C@H]1[C@@H](O)[C@@H](O)[C@H](O)C[C@H]1O)OC(=O)CCCCCCCCCCCCCCC` (some centres undefined), the IC50 entry in experiment [2] is “Not Active”; in the experiment with HT-29, 35 µM.
